Experimental data from ChEMBL document CHEMBL1201862, “PubChem BioAssay data set” (2004).
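Dose response: 5 concentrations. Exposure: 48 h. Format: 96-well plates. Endpoint: linear interpolation; highest concentration if not reached. The concentration for 50% growth inhibition is given as GI50.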 The source made the active and inactive calls. No stated cut-off is given here; in the data, active = GI50 up to about 1.1 µM and inactive = higher.

Legend:
Test in all cases: inhibition of tumour cell growth, NCI panel, 48 h
[1] = tested on: 786-0
[2] = tested on: A498
[3] = tested on: A549
[4] = tested on: ACHN
[5] = tested on: CAKI-1
[6] = tested on: CCRF-CEM
[7] = tested on: COLO 205
[8] = tested on: DLD-1
[9] = tested on: DMS-114
[10] = tested on: DMS-273
[11] = tested on: EKVX
[12] = tested on: HCC 2998
[13] = tested on: HCT-116
[14] = tested on: HCT-15
[15] = tested on: HL-60
[16] = tested on: HOP-18
[17] = tested on: HOP-62
[18] = tested on: HOP-92
[19] = tested on: HT-29
[20] = tested on: IGROV-1
[21] = tested on: K562
[22] = tested on: KM-20L2
[23] = tested on: KM12
[24] = tested on: LOX IMVI
[25] = tested on: LXFL 529
[26] = tested on: M14
[27] = tested on: M19-MEL
[28] = tested on: MOLT-4
[29] = tested on: Malme-3M
[30] = tested on: NCI-H226
[31] = tested on: NCI-H23
[32] = tested on: NCI-H460
[33] = tested on: NCI-H522
[34] = tested on: OVCAR-3
[35] = tested on: OVCAR-4
[36] = tested on: OVCAR-5
[37] = tested on: OVCAR-8
[38] = tested on: RXF 393
[39] = tested on: RXF 631
[40] = tested on: SF-268
[41] = tested on: SF-295
[42] = tested on: SF-539
[43] = tested on: SK-MEL-28
[44] = tested on: SK-MEL-2
[45] = tested on: SK-MEL-5
[46] = tested on: SK-OV-3
[47] = tested on: SN12C
[48] = tested on: SNB-19
[49] = tested on: SNB-75
[50] = tested on: SNB-78
[51] = tested on: SR
[52] = tested on: SW-620
[53] = tested on: TK-10
[54] = tested on: U-251
[55] = tested on: UACC-257
[56] = tested on: UACC-62
[57] = tested on: UO-31
[58] = tested on: XF498
[59] = tested on: RPMI-8226

CCSC1=C(C)N(/C=N/C(C)(C)C)CC1
GI50 [1]: > 100 µM (inactive)
GI50 [2]: > 100 µM (inactive)
GI50 [3]: > 100 µM (inactive)
GI50 [4]: > 100 µM (inactive)
GI50 [5]: > 100 µM (inactive)
GI50 [6]: > 100 µM (inactive)
GI50 [7]: > 100 µM (inactive)
GI50 [8]: > 100 µM (inactive)
GI50 [9]: > 100 µM (inactive)
GI50 [10]: > 100 µM (inactive)
GI50 [11]: > 100 µM (inactive)
GI50 [12]: > 100 µM (inactive)
GI50 [13]: > 100 µM (inactive)
GI50 [14]: > 100 µM
GI50 [15]: > 100 µM (inactive)
GI50 [16]: > 100 µM (inactive)
GI50 [17]: > 100 µM (inactive)
GI50 [18]: > 100 µM (inactive)
GI50 [19]: > 100 µM (inactive)
GI50 [20]: > 100 µM (inactive)
GI50 [21]: > 100 µM (inactive)
GI50 [22]: > 100 µM (inactive)
GI50 [23]: > 100 µM (inactive)
GI50 [24]: 89.1 µM (inactive)
GI50 [25]: > 100 µM (inactive)
GI50 [26]: > 100 µM (inactive)
GI50 [27]: > 100 µM (inactive)
GI50 [28]: > 100 µM (inactive)
GI50 [29]: > 100 µM (inactive)
GI50 [30]: > 100 µM (inactive)
GI50 [31]: > 100 µM (inactive)
GI50 [32]: > 100 µM (inactive)
GI50 [33]: > 100 µM (inactive)
GI50 [34]: > 100 µM (inactive)
GI50 [35]: > 100 µM (inactive)
GI50 [36]: > 100 µM (inactive)
GI50 [37]: > 100 µM (inactive)
GI50 [38]: > 100 µM (inactive)
GI50 [39]: > 100 µM (inactive)
GI50 [40]: > 100 µM (inactive)
GI50 [41]: > 100 µM (inactive)
GI50 [42]: > 100 µM (inactive)
GI50 [43]: > 100 µM (inactive)
GI50 [44]: > 100 µM (inactive)
GI50 [45]: > 100 µM (inactive)
GI50 [46]: > 100 µM (inactive)
GI50 [47]: > 100 µM (inactive)
GI50 [48]: > 100 µM (inactive)
GI50 [49]: > 100 µM (inactive)
GI50 [50]: > 100 µM (inactive)
GI50 [51]: > 100 µM (inactive)
GI50 [52]: 20.5 µM (inactive)
GI50 [53]: > 100 µM (inactive)
GI50 [54]: > 100 µM (inactive)
GI50 [55]: > 100 µM (inactive)
GI50 [56]: > 100 µM (inactive)
GI50 [57]: > 100 µM (inactive)
GI50 [58]: > 100 µM (inactive)

COc1ccc(C(O)/C(=N\NC(N)=S)c2nc3ccc([N+](=O)[O-])cc3nc2O)cc1OC (configuration not stated)
GI50 [1]: > 100 µM (inactive)
GI50 [2]: > 100 µM (inactive)
GI50 [3]: > 100 µM (inactive)
GI50 [4]: > 100 µM (inactive)
GI50 [6]: > 100 µM (inactive)
GI50 [7]: > 100 µM (inactive)
GI50 [8]: > 100 µM (inactive)
GI50 [9]: 53.1 µM (inactive)
GI50 [10]: > 100 µM (inactive)
GI50 [11]: > 100 µM (inactive)
GI50 [12]: > 100 µM (inactive)
GI50 [15]: > 100 µM (inactive)
GI50 [16]: 44.2 µM (inactive)
GI50 [17]: > 100 µM (inactive)
GI50 [18]: > 100 µM (inactive)
GI50 [19]: > 100 µM (inactive)
GI50 [20]: > 100 µM (inactive)
GI50 [21]: > 100 µM (inactive)
GI50 [22]: > 100 µM (inactive)
GI50 [23]: > 100 µM (inactive)
GI50 [24]: > 100 µM (inactive)
GI50 [25]: > 100 µM (inactive)
GI50 [26]: > 100 µM (inactive)
GI50 [27]: > 100 µM (inactive)
GI50 [28]: 78.3 µM (inactive)
GI50 [29]: > 100 µM (inactive)
GI50 [30]: > 100 µM (inactive)
GI50 [31]: > 100 µM (inactive)
GI50 [32]: > 100 µM (inactive)
GI50 [33]: 32.4 µM (inactive)
GI50 [35]: > 100 µM (inactive)
GI50 [36]: > 100 µM (inactive)
GI50 [37]: > 100 µM (inactive)
GI50 [59]: > 100 µM (inactive)
GI50 [38]: > 100 µM (inactive)
GI50 [39]: > 100 µM (inactive)
GI50 [40]: > 100 µM (inactive)
GI50 [41]: > 100 µM (inactive)
GI50 [43]: > 100 µM (inactive)
GI50 [44]: > 100 µM (inactive)
GI50 [46]: > 100 µM (inactive)
GI50 [49]: > 100 µM (inactive)
GI50 [52]: > 100 µM (inactive)
GI50 [53]: > 100 µM (inactive)
GI50 [54]: > 100 µM (inactive)
GI50 [55]: 64.3 µM (inactive)
GI50 [56]: > 100 µM (inactive)
GI50 [57]: > 100 µM (inactive)
GI50 [58]: > 100 µM (inactive)
